The term efflux ratio denotes a quotient of directional permeabilities that is used to spot active efflux.

pKi: −log10 of the molar value. Structures can show the parent of a compound that is named as a salt.

One data set addresses T1, human GlyT1c transporter (Homo sapiens, UniProt P48067).
T1 construct: expressed in transfected cells; host or cells: CHO cells (recombinant; membranes)
T1 sequence (P48067 1-706): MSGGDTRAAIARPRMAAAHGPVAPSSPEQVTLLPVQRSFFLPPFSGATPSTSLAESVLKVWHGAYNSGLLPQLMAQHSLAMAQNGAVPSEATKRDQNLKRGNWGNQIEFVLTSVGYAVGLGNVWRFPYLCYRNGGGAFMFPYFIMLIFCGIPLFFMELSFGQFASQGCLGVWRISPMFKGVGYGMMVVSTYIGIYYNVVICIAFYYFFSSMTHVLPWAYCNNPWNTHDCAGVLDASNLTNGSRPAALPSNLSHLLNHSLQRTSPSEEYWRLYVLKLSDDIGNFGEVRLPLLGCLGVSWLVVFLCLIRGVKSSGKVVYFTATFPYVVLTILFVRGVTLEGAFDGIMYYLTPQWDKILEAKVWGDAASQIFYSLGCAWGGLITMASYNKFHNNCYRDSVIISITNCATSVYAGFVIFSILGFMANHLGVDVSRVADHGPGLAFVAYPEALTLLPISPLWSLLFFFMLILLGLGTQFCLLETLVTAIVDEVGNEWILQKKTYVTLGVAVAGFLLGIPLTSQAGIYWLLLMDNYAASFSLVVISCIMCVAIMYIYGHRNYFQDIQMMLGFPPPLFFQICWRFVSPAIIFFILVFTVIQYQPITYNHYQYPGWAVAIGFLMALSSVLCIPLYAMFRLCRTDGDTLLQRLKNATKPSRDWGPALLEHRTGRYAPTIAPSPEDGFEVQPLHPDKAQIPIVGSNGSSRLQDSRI
As to the kind of experiment: Radioligand binding assay using recombinant CHO cell membranes expressing human GlyT1. Conditions: values given as upper bounds, read-out: radioligand binding Kiapp. The method, then: 2. Radioligand Binding Assays Using Recombinant CHO Cell Membranes Expressing Human GlyT1:
Radioligand binding to human GlyT1c transporter-expressing membranes was determined as described in Mezler et al., Molecular Pharmacology 74:1705-1715, 2008.
Take `CN[C@@H]1COc2ccc(CNS(=O)(=O)C3CCC3)cc2[C@@H]1Cc1ccccc1` (relative stereo) [Example 25, cis-Cyclobutanesulfonic acid (4-benzyl-3-methylamino-chroman-6-ylmethyl)-amide]: the pKi was no less than 7.00. As to `CCCS(=O)(=O)NCc1ccc2c(c1)[C@H](Cc1ccccc1)[C@H](NC)CO2` (relative stereo) [Example 7a, cis-N-{[4-Benzyl-3-(methylamino)-3,4-dihydro-2H-chromen-6-yl]methyl}propane-1-sulfonamide], the pKi is no less than 8.00. Still for that read-out and setting: in the case of `Cn1cnc(S(=O)(=O)NCc2ccc3c(c2)[C@H](Cc2ccccc2)[C@H](NCCC2CCCC2)CO3)c1` (relative stereo) [Example 34, cis-N-((-4-benzyl-3-((2-cyclopentylethyl)amino)chroman-6-yl)methyl)-1-methyl-1H-imidazole-4-sulfonamide 2,2,2-trifluoroacetate] it was no less than 5.00. On the same count and under the same terms, as for `CCS(=O)(=O)NCc1ccc2c(c1)C(Cc1ccccc1)C(N1CCC1)CO2` (stereo not drawn) [Example 19, Ethanesulfonic acid (3-azetidin-1-yl-4-benzyl-chroman-6-ylmethyl)-amide; trifluoro-acetic acid salt], the figure is no less than 6.00. Same read-out and setting: as for `Cc1cc(S(=O)(=O)NCc2ccc3c(c2)C(Cc2ccccc2)C(N)CO3)n(C)n1` (stereo not drawn) [Example 55, 2,5-Dimethyl-2H-pyrazole-3-sulfonic acid (3-amino-4-benzyl-chroman-6-ylmethyl)-amide 2,2,2-trifluoroacetate], the figure is no less than 5.00. Consider `CCS(=O)(=O)NCc1ccc2c(c1)[C@H](Cc1ccccc1)[C@H](N)CO2` (relative stereo) [Example 23, cis-Ethanesulfonic acid (3-amino-4-benzyl-chroman-6-ylmethyl)-amide], for which the pKi was no less than 7.00.

`CN[C@@H]1COc2ccc(OCCNS(=O)(=O)c3cnn(C)c3)cc2[C@H]1Cc1ccccc1` (relative stereo) [Example 1b, trans-N-(2-{[-4-benzyl-3-(methylamino)-3,4-dihydro-2H-chromen-6-yl]oxy}ethyl)-1-methyl-1H-pyrazole-4-sulfonamide hydrochloride]: the pKi was no less than 8.00.

Regarding `CN[C@@H]1COc2ccc(CNS(=O)(=O)CC3CC3)cc2[C@@H]1Cc1ccccc1` (relative stereo) [Example 8a, cis-N-{[4-Benzyl-3-(methylamino)-3,4-dihydro-2H-chromen-6-yl]methyl}-1-cyclopropylmethanesulfonamide], the pKi was no less than 8.00.

The target in the next data set is T2, MDR1 (P-gp) (Homo sapiens, UniProt P08183).
T2 construct: expressed in transfected cells; host or cells: Madin-Darby Canine Kidney Type II cells (MDR1-MDCK)
T2 sequence (P08183 whole entry, species assumed): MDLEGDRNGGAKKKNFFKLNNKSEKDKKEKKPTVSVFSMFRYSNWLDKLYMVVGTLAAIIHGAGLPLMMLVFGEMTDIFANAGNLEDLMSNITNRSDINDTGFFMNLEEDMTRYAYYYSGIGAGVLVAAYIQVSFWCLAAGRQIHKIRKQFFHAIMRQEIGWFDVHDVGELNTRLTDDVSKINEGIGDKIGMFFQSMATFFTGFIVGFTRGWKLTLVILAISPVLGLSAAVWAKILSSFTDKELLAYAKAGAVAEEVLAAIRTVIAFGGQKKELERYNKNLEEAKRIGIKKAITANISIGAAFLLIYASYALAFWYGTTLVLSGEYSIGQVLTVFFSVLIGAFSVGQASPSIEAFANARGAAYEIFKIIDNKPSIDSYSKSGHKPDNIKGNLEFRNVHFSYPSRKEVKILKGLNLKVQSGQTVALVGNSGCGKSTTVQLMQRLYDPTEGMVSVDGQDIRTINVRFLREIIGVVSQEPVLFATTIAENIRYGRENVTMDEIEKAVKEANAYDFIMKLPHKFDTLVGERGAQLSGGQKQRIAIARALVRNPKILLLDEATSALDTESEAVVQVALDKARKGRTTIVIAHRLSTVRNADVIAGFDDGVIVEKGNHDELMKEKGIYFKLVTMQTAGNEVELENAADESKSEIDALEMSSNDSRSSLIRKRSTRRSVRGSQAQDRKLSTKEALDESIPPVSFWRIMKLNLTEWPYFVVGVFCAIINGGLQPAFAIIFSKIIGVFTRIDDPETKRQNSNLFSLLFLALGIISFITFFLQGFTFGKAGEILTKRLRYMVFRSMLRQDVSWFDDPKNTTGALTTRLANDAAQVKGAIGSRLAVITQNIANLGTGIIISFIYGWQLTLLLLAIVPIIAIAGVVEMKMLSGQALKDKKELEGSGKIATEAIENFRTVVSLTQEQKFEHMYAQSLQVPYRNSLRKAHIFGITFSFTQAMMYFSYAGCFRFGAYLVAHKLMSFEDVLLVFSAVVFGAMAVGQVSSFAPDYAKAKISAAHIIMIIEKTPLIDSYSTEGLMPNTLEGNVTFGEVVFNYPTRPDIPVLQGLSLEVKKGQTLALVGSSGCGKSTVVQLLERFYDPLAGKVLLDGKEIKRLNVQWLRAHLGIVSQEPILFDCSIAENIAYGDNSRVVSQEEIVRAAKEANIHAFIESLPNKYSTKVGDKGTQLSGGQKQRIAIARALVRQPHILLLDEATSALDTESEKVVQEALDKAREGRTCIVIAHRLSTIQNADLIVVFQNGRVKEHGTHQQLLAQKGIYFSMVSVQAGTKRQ
As to the kind of experiment: Efflux ratio by bidirectional transport in MDR1-MDCK cells. The class given is in vitro ADME. Conditions: dog; MDR1-MDCK monolayers, 1 μM compound, HBSS pH 7.4, 1 h at 37 C; calculated from permeability coefficients. On the procedure: 3. Determination of Efflux Ratio Using Madin-Darby Canine Kidney Type II Cells
Bidirectional transport experiments were performed on Madin-Darby Canine Kidney Type II cells over-expressing multidrug resistance protein 1 (MDR1-MDCK) to evaluate the compounds as potential P-gp substrates.
Compounds were added at 1 μM in HBSS-pH 7.4 (hanks balanced salt solution) to either the apical or basolateral side of MDR1-MDCK cell monolayers grown on Millicell 96-Cell polycarbonate filters. Samples were collected from both apical and basolateral sides at time 0 and after 1 h incubation at 37 C, compounds concentrations were measured by HPLC/MS/MS and permeability coefficients were then determined in both transport directions. The efflux ratio was subsequently calculated from the permeability coefficient.
Regarding `CN[C@@H]1COc2ccc(CNS(=O)(=O)C3CCC3)cc2[C@@H]1Cc1ccccc1` (relative stereo) [Example 25, cis-Cyclobutanesulfonic acid (4-benzyl-3-methylamino-chroman-6-ylmethyl)-amide], the efflux ratio at 1 h, 1 μM is 1.4.

The record behind these values is patent US8853196B2, “Aminochromane, aminothiochromane and amino-1,2,3,4-tetrahydroquinoline derivatives, pharmaceutical compositions containing them, and their use in therapy” (AbbVie Deutschland GmbH & Co. KG, priority 2011, dated 2014).
